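Five concentrations, 48 hours, 96-well plates. TGI marks complete inhibition of growth.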
Assays:
Assay in all cases: inhibition of tumour cell growth, NCI panel, 48 h
MDA-MB-435 = tested on: MDA-MB-435
MDA-MB-231 breast = tested on: MDA-MB-231 breast
HOP-62 NSCLC = tested on: HOP-62 NSCLC
SN12C renal = tested on: SN12C renal
BT-549 breast = tested on: BT-549 breast
HT29 colon = tested on: HT29 colon
MALME-3M melanoma = tested on: MALME-3M melanoma
OVCAR-4 ovarian = tested on: OVCAR-4 ovarian
SF-539 CNS = tested on: SF-539 CNS
RPMI-8226 leukemia = tested on: RPMI-8226 leukemia
TK-10 renal = tested on: TK-10 renal
COLO 205 colon = tested on: COLO 205 colon
SK-OV-3 ovarian = tested on: SK-OV-3 ovarian
SNB-75 CNS = tested on: SNB-75 CNS
M14 melanoma = tested on: M14 melanoma
HS 578T breast = tested on: HS 578T breast
NCI/ADR-RES ovarian = tested on: NCI/ADR-RES ovarian
RXF 393 renal = tested on: RXF 393 renal
OVCAR-3 ovarian = tested on: OVCAR-3 ovarian
HCC-2998 colon = tested on: HCC-2998 colon
NCI-H226 lung = tested on: NCI-H226 lung
EKVX NSCLC = tested on: EKVX NSCLC
DU-145 prostate = tested on: DU-145 prostate
IGROV1 ovarian = tested on: IGROV1 ovarian
SK-MEL-28 melanoma = tested on: SK-MEL-28 melanoma
SF-268 CNS = tested on: SF-268 CNS
SR leukemia = tested on: SR leukemia
SW-620 colon = tested on: SW-620 colon
CCRF-CEM leukemia = tested on: CCRF-CEM leukemia
PC-3 prostate = tested on: PC-3 prostate
OVCAR-8 ovarian = tested on: OVCAR-8 ovarian
NCI-H460 lung = tested on: NCI-H460 lung
MOLT-4 leukemia = tested on: MOLT-4 leukemia
K-562 leukemia = tested on: K-562 leukemia
UO-31 renal = tested on: UO-31 renal
KM12 colon = tested on: KM12 colon
A498 renal = tested on: A498 renal
NCI-H522 lung = tested on: NCI-H522 lung
A549 NSCLC = tested on: A549 NSCLC
SNB-19 CNS = tested on: SNB-19 CNS
SK-MEL-5 melanoma = tested on: SK-MEL-5 melanoma
UACC-62 melanoma = tested on: UACC-62 melanoma
SF-295 CNS = tested on: SF-295 CNS
OVCAR-5 ovarian = tested on: OVCAR-5 ovarian
ACHN renal = tested on: ACHN renal
SK-MEL-2 melanoma = tested on: SK-MEL-2 melanoma
MCF7 breast = tested on: MCF7 breast
HL-60(TB) leukemia = tested on: HL-60(TB) leukemia
LOX IMVI melanoma = tested on: LOX IMVI melanoma
U251 CNS = tested on: U251 CNS
786-0 renal = tested on: 786-0 renal
T-47D breast = tested on: T-47D breast
NCI-H23 lung = tested on: NCI-H23 lung
HCT-15 colon = tested on: HCT-15 colon
HOP-92 NSCLC = tested on: HOP-92 NSCLC
HCT-116 colon = tested on: HCT-116 colon
CAKI-1 renal = tested on: CAKI-1 renal
UACC-257 melanoma = tested on: UACC-257 melanoma

Q: With `CN(C)CCNc1c([N+](=O)[O-])sc2ccc(Cl)cc12` as the molecule, how does the TGI (MDA-MB-435) read?
A: > 100 µM

Q: What about the TGI (MDA-MB-231 breast) of the same molecule?
A: > 100 µM

Q: And the TGI (HOP-62 NSCLC)?
A: > 100 µM

Q: What about the TGI (SN12C renal) of the same molecule?
A: > 100 µM

Q: And the TGI (BT-549 breast)?
A: > 100 µM

Q: What about the TGI (HT29 colon) of the same molecule?
A: > 100 µM

Q: What about the TGI (MALME-3M melanoma) of the same molecule?
A: > 100 µM

Q: What about the TGI (OVCAR-4 ovarian) of the same molecule?
A: > 100 µM

Q: And the TGI (SF-539 CNS)?
A: 46.9 µM

Q: And the TGI (RPMI-8226 leukemia)?
A: > 100 µM

Q: What about the TGI (TK-10 renal) of the same molecule?
A: > 100 µM

Q: What about the TGI (COLO 205 colon) of the same molecule?
A: > 100 µM

Q: And the TGI (SK-OV-3 ovarian)?
A: > 100 µM

Q: What about the TGI (SNB-75 CNS) of the same molecule?
A: 43 µM

Q: And the TGI (M14 melanoma)?
A: > 100 µM

Q: What about the TGI (HS 578T breast) of the same molecule?
A: > 100 µM

Q: What about the TGI (NCI/ADR-RES ovarian) of the same molecule?
A: > 100 µM

Q: And the TGI (RXF 393 renal)?
A: 82.8 µM

Q: And the TGI (OVCAR-3 ovarian)?
A: > 100 µM

Q: What about the TGI (HCC-2998 colon) of the same molecule?
A: > 100 µM

Q: What about the TGI (NCI-H226 lung) of the same molecule?
A: 66 µM

Q: What about the TGI (EKVX NSCLC) of the same molecule?
A: > 100 µM

Q: And the TGI (DU-145 prostate)?
A: > 100 µM

Q: What about the TGI (IGROV1 ovarian) of the same molecule?
A: > 100 µM

Q: What about the TGI (SK-MEL-28 melanoma) of the same molecule?
A: > 100 µM

Q: What about the TGI (SF-268 CNS) of the same molecule?
A: > 100 µM

Q: And the TGI (SR leukemia)?
A: > 100 µM

Q: What about the TGI (SW-620 colon) of the same molecule?
A: > 100 µM

Q: What about the TGI (CCRF-CEM leukemia) of the same molecule?
A: > 100 µM

Q: What about the TGI (PC-3 prostate) of the same molecule?
A: > 100 µM

Q: What about the TGI (OVCAR-8 ovarian) of the same molecule?
A: > 100 µM

Q: And the TGI (NCI-H460 lung)?
A: > 100 µM

Q: What about the TGI (MOLT-4 leukemia) of the same molecule?
A: 7.73 µM

Q: What about the TGI (K-562 leukemia) of the same molecule?
A: > 100 µM

Q: What about the TGI (UO-31 renal) of the same molecule?
A: > 100 µM

Q: And the TGI (KM12 colon)?
A: > 100 µM

Q: What about the TGI (A498 renal) of the same molecule?
A: > 100 µM

Q: And the TGI (NCI-H522 lung)?
A: 87.4 µM

Q: And the TGI (A549 NSCLC)?
A: > 100 µM

Q: And the TGI (SNB-19 CNS)?
A: > 100 µM

Q: And the TGI (SK-MEL-5 melanoma)?
A: > 100 µM

Q: What about the TGI (UACC-62 melanoma) of the same molecule?
A: 62.7 µM

Q: What about the TGI (SF-295 CNS) of the same molecule?
A: > 100 µM

Q: And the TGI (OVCAR-5 ovarian)?
A: > 100 µM

Q: And the TGI (ACHN renal)?
A: > 100 µM

Q: What about the TGI (SK-MEL-2 melanoma) of the same molecule?
A: > 100 µM

Q: And the TGI (MCF7 breast)?
A: > 100 µM

Q: What about the TGI (HL-60(TB) leukemia) of the same molecule?
A: > 100 µM

Q: And the TGI (LOX IMVI melanoma)?
A: > 100 µM

Q: What about the TGI (U251 CNS) of the same molecule?
A: 78.3 µM

Q: And the TGI (786-0 renal)?
A: 49.1 µM

Q: What about the TGI (T-47D breast) of the same molecule?
A: > 100 µM

Q: And the TGI (NCI-H23 lung)?
A: > 100 µM

Q: And the TGI (HCT-15 colon)?
A: > 100 µM

Q: `Cc1cc2c(C(C)C)c(O)c(O)c(C=Nc3cc(C(F)(F)F)ccc3Cl)c2c(O)c1-c1c(C)cc2c(C(C)C)c(O)c(O)c(C=Nc3cc(C(F)(F)F)ccc3Cl)c2c1O` was tested. Which TGI (MDA-MB-435) did it give?
A: 86 µM

Q: And the TGI (MDA-MB-231 breast)?
A: > 100 µM

Q: What about the TGI (HOP-62 NSCLC) of the same molecule?
A: > 100 µM

Q: And the TGI (SN12C renal)?
A: > 100 µM

Q: What about the TGI (BT-549 breast) of the same molecule?
A: 77.6 µM

Q: What about the TGI (HOP-92 NSCLC) of the same molecule?
A: 53.5 µM

Q: What about the TGI (HT29 colon) of the same molecule?
A: 79.3 µM

Q: And the TGI (MALME-3M melanoma)?
A: 95 µM

Q: What about the TGI (SF-539 CNS) of the same molecule?
A: > 100 µM

Q: What about the TGI (RPMI-8226 leukemia) of the same molecule?
A: > 100 µM

Q: What about the TGI (TK-10 renal) of the same molecule?
A: > 100 µM

Q: What about the TGI (COLO 205 colon) of the same molecule?
A: 90.5 µM

Q: And the TGI (SK-OV-3 ovarian)?
A: 54 µM

Q: And the TGI (M14 melanoma)?
A: > 100 µM

Q: And the TGI (HS 578T breast)?
A: > 100 µM

Q: What about the TGI (NCI/ADR-RES ovarian) of the same molecule?
A: > 100 µM

Q: What about the TGI (RXF 393 renal) of the same molecule?
A: 97.7 µM

Q: And the TGI (OVCAR-3 ovarian)?
A: > 100 µM

Q: And the TGI (HCC-2998 colon)?
A: > 100 µM

Q: And the TGI (NCI-H226 lung)?
A: 95.4 µM

Q: What about the TGI (EKVX NSCLC) of the same molecule?
A: > 100 µM

Q: And the TGI (DU-145 prostate)?
A: > 100 µM

Q: What about the TGI (IGROV1 ovarian) of the same molecule?
A: 75 µM

Q: And the TGI (SK-MEL-28 melanoma)?
A: > 100 µM

Q: What about the TGI (SF-268 CNS) of the same molecule?
A: > 100 µM

Q: And the TGI (HCT-116 colon)?
A: > 100 µM

Q: And the TGI (SR leukemia)?
A: > 100 µM

Q: What about the TGI (SW-620 colon) of the same molecule?
A: > 100 µM

Q: And the TGI (CCRF-CEM leukemia)?
A: > 100 µM

Q: And the TGI (PC-3 prostate)?
A: > 100 µM

Q: What about the TGI (OVCAR-8 ovarian) of the same molecule?
A: > 100 µM

Q: And the TGI (NCI-H460 lung)?
A: > 100 µM

Q: And the TGI (CAKI-1 renal)?
A: > 100 µM

Q: What about the TGI (UACC-257 melanoma) of the same molecule?
A: > 100 µM

Q: What about the TGI (K-562 leukemia) of the same molecule?
A: > 100 µM

Q: What about the TGI (UO-31 renal) of the same molecule?
A: > 100 µM

Q: And the TGI (KM12 colon)?
A: 92.4 µM

Q: And the TGI (A498 renal)?
A: > 100 µM

Q: And the TGI (NCI-H522 lung)?
A: 45.4 µM

Q: And the TGI (A549 NSCLC)?
A: > 100 µM

Q: What about the TGI (SNB-19 CNS) of the same molecule?
A: > 100 µM

Q: What about the TGI (SK-MEL-5 melanoma) of the same molecule?
A: 64.7 µM

Q: And the TGI (UACC-62 melanoma)?
A: 51.8 µM

Q: What about the TGI (OVCAR-5 ovarian) of the same molecule?
A: > 100 µM

Q: What about the TGI (ACHN renal) of the same molecule?
A: 79.4 µM

Q: And the TGI (SK-MEL-2 melanoma)?
A: 80.8 µM

Q: What about the TGI (MCF7 breast) of the same molecule?
A: 71.4 µM

Q: And the TGI (HL-60(TB) leukemia)?
A: 78.5 µM

Q: What about the TGI (LOX IMVI melanoma) of the same molecule?
A: 47.3 µM

Q: And the TGI (U251 CNS)?
A: 72.2 µM

Q: And the TGI (786-0 renal)?
A: > 100 µM

Q: What about the TGI (T-47D breast) of the same molecule?
A: > 100 µM

Q: What about the TGI (NCI-H23 lung) of the same molecule?
A: > 100 µM

Q: What about the TGI (HCT-15 colon) of the same molecule?
A: > 100 µM

From PubChem BioAssay (NCI)
